Test results as given in the supplement of paper PMC10307832.

How the values were obtained:
Assay in all cases: relative viability (nuclei count vs DMSO), 5 days (fraction); higher = more cells survive
Ponatinib + Lapatinib = compound: Cc1ccc(C(=O)Nc2ccc(CN3CCN(C)CC3)c(C(F)(F)F)c2)cc1C#Cc1cnc2cccnn12 [Ponatinib] + CS(=O)(=O)CCNCc1ccc(-c2ccc3ncnc(Nc4ccc(OCc5cccc(F)c5)c(Cl)c4)c3c2)o1 [Lapatinib] (partner 2 µM)
Outline: (§1)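 For relative viability, nuclei counts in treated wells were divided by those in vehicle wells. Lung cancer cell lines had been pin-tool dosed in 1536-well plates the day after seeding and cultured for 5 days, then fixed and stained in one step (final 0.05% Triton X-100, 1% formaldehyde, 1 ug/ml Hoechst) and imaged at 4×. Doses were one drug alone or a fixed anchor-drug dose plus five library-drug doses (not always all listed) in √10 steps, and values are duplicate-plate medians.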

Pazopanib + Olaparib = compound: Cc1ccc(Nc2nccc(N(C)c3ccc4c(C)n(C)nc4c3)n2)cc1S(N)(=O)=O [Pazopanib] + O=C(c1cc(Cc2n[nH]c(=O)c3ccccc23)ccc1F)N1CCN(C(=O)C2CC2)CC1 [Olaparib] (partner 8 µM)
Outline: as §1

Pazopanib + Alpelisib = compound: Cc1ccc(Nc2nccc(N(C)c3ccc4c(C)n(C)nc4c3)n2)cc1S(N)(=O)=O [Pazopanib] + Cc1nc(NC(=O)N2CCC[C@H]2C(N)=O)sc1-c1ccnc(C(C)(C)C(F)(F)F)c1 [Alpelisib] (partner 2 µM)
Outline: as §1

Pazopanib + Tozasertib = compound: Cc1ccc(Nc2nccc(N(C)c3ccc4c(C)n(C)nc4c3)n2)cc1S(N)(=O)=O [Pazopanib] + Cc1cc(Nc2cc(N3CCN(C)CC3)nc(Sc3ccc(NC(=O)C4CC4)cc3)n2)n[nH]1 [Tozasertib] (partner 0.1 µM)
Outline: as §1

Cell Line	relative viability (Ponatinib + Lapatinib; first compound 0.002 µM)	relative viability (Ponatinib + Lapatinib; first compound 0.006325 µM)	relative viability (Ponatinib + Lapatinib; first compound 0.06325 µM)	relative viability (Ponatinib + Lapatinib; first compound 0.2 µM)	relative viability (Pazopanib + Olaparib; first compound 0.03162 µM)	relative viability (Pazopanib + Olaparib; first compound 0.1 µM)	relative viability (Pazopanib + Olaparib; first compound 0.3162 µM)	relative viability (Pazopanib + Olaparib; first compound 1 µM)	relative viability (Pazopanib + Alpelisib; first compound 0.01 µM)	relative viability (Pazopanib + Alpelisib; first compound 0.03162 µM)	relative viability (Pazopanib + Alpelisib; first compound 0.1 µM)	relative viability (Pazopanib + Alpelisib; first compound 0.3162 µM)	relative viability (Pazopanib + Alpelisib; first compound 1 µM)	relative viability (Pazopanib + Tozasertib; first compound 0.01 µM)	relative viability (Pazopanib + Tozasertib; first compound 0.03162 µM)	relative viability (Pazopanib + Tozasertib; first compound 0.1 µM)	relative viability (Pazopanib + Tozasertib; first compound 0.3162 µM)	relative viability (Pazopanib + Tozasertib; first compound 1 µM)	relative viability (Pazopanib + Olaparib; first compound 0.01 µM)
PC-3 [JPC-3]	0.43	0.45	0.492	0.502	1.15	1.18	1.11	1.02	0.965	1.04	1.19	0.991	0.956	0.947	0.918	0.916	0.915	0.756	–
PC-14	0.313	0.363	0.384	0.386	0.329	0.371	0.235	0.319	0.883	0.996	0.959	0.934	0.935	0.69	0.636	0.725	0.586	0.603	0.335
RERF-LC-KJ	0.8	0.882	0.881	0.8	0.938	0.947	0.785	0.583	0.808	0.928	0.906	0.806	0.935	0.557	0.522	0.507	0.432	0.331	0.805
SK-LU-1	0.636	0.858	0.864	0.741	0.483	0.441	0.525	0.55	0.977	1.24	1.1	1.05	1.04	0.332	0.361	0.334	0.28	0.318	0.392
SK-MES-1	0.472	0.531	0.749	0.59	0.684	0.76	0.75	0.685	0.816	0.872	1.02	0.977	0.836	0.934	0.891	0.916	0.905	0.786	0.659
SW 1573	1.1	1.19	1.25	1.22	0.511	0.52	0.531	0.517	0.69	0.707	0.683	0.808	0.81	0.193	0.216	0.218	0.153	0.176	0.471
